Assay results as given in patent US8871946B2, “Benzimidazole-4-carboxamide derivatives, their preparation methods, pharmaceutical compositions and their uses” (Zhejiang Medicine Co., Ltd. Xinchang Pharmaceutical Factory, priority 2009, dated 2014).
≈ marks a conversion by molar mass, not a printed value.

system: coxsackie B3 viruses; experiment: Measures of anti-coxsackie B3 viruses activity of the compounds in Vero cells; format: cell-based; conditions: Enterovirus B, B3, half inhibitory concentration for viruses, read-out: IC50
From the text: Measures of Anti-Coxsackie B3 Viruses Activity of the Compounds The products are applied for measures of antivirus properties of Vero cells. Refer to the results of Table 3: datum of anti-coxsackie B3 viruses activities of some compounds. […] IC50 indicates half inhibitory concentration for viruses. RBV indicates triazole nucleoside, is also called ribavirin, virazole.

| Molecule | IC50 [mg/L] |
| --- | --- |
| NC(=O)c1ncn([C@@H]2O[C@H](CO)[C@@H](O)[C@H]2O)n1 [RBV, ribavirin, reference compound] | 354 (≈ 1450 µM) |

same assay, conditions: half inhibitory concentration for viruses

| Molecule | IC50 [mg/L] |
| --- | --- |
| COc1ccnc(-c2nc3c(C(=O)Nc4ccc(N)cc4)cccc3[nH]2)c1 [2-(4-methoxypyridyl)-1H-benzimidazole-4-(N-p-aminophenyl)amide] | 13.4 (≈ 37.3 µM) |
| Cc1ccccc1NC(=O)c1cccc2[nH]c(-c3ccc(N)s3)nc12 [2-(5-amino-2-thienyl)-1H-benzimidazole-4-(N-o-methylphenyl)amide] | 8.7 (≈ 25 µM) |
| Nc1ccc(-c2nc3c(C(=O)NC(CO)C(O)c4ccc([N+](=O)[O-])cc4)cccc3[nH]2)s1 (centres unmarked) [(L)-2-(5-amino-2-thienyl)-1H-benzimidazole-4-[N-(1-hydroxymethyl-2-p-nitrophenylhydroxyethyl)]amide] | 2.3 (≈ 5.07 µM) |
| O=C(Nc1ccccc1F)c1cccc2[nH]c(N3CCNCC3)nc12 [2-N-piperazinyl-1H-benzimidazole-4-(N-o-fluorophenyl)amide] | 4.8 (≈ 14.1 µM) |
| Cc1cc(C)c(-c2nc3c(C(=O)NC(CO)C(O)c4ccc([N+](=O)[O-])cc4)cccc3[nH]2)[nH]1 (centres unmarked) [(L)-2-(3,5-dimethyl-2-pyrrolyl)-1H-benzimidazole-4-[N-(1-hydroxymethyl-2-p-nitrophenylhydroxyethyl)]amide] | 8.6 (≈ 19.1 µM) |
| Cc1nc(-c2nc3c(C(=O)Nc4ccccc4F)cccc3[nH]2)sc1N [2-(4-methyl-5-aminothiazolyl)-1H-benzimidazole-4-(N-o-fluorophenyl)amide] | 10.2 (≈ 27.8 µM) |
| O=C(NC(CO)C(O)c1ccc([N+](=O)[O-])cc1)c1cccc2[nH]c(-c3cnccn3)nc12 (centres unmarked) [(L)-2-(2-pyrazinyl)-1H-benzimidazole-4-[N-(1-hydroxymethyl-2-p-nitrophenylhydroxyethyl)]amide] | 2.3 (≈ 5.29 µM) |
| Nc1ncnc(Cl)c1-c1nc2c(C(=O)NC(CO)C(O)c3ccc([N+](=O)[O-])cc3)cccc2[nH]1 (centres unmarked) [(L)-2-(4-amino-6-chloro-5-pyrimidinyl)-1H-benzimidazole-4-[N-(1-hydroxymethyl-2-p-nitrophenylhydroxyethyl)]amide] | 17.2 (≈ 35.5 µM) |
| O=C(NC(CO)C(O)c1ccc([N+](=O)[O-])cc1)c1cccc2[nH]c(-c3cc(O)c(O)c(O)c3)nc12 (centres unmarked) [(L)-2-(3,4,5-trihydroxyphenyl)-1H-benzimidazole-4-[N-(1-hydroxymethyl-2-p-nitrophenylhydroxyethyl)]amide] | 10.2 (≈ 21.2 µM) |
| O=C(Nc1ccccc1F)c1cccc2[nH]c(-c3ccc([N+](=O)[O-])s3)nc12 [2-(5-nitro-2-thienyl)-1H-benzimidazole-4-(N-(2-fluorophenyl))-amide] | >9.25 |
| O=C(NC(CO)C(O)c1ccc([N+](=O)[O-])cc1)c1cccc2[nH]c(-c3ccccn3)nc12 (centres unmarked) [(L)-2-(2-pyridyl)-1H-benzimidazole-4-[N-(1-hydroxymethyl-2-p-nitrophenylhydroxyethyl)]amide] | 1.76 (≈ 4.06 µM) |
| CN(C)c1ccnc(-c2nc3c(C(=O)NC(CO)C(O)c4ccc([N+](=O)[O-])cc4)cccc3[nH]2)c1 (centres unmarked) [(L)-2-(4-dimethylaminopyridyl)-1H-benzimidazole-4-[N-(1-hydroxymethyl-2-p-nitrophenylhydroxyethyl)]amide] | 10.2 (≈ 21.4 µM) |
| CN1CCN(C)C(c2nc3c(C(=O)NC(CO)C(O)c4ccc([N+](=O)[O-])cc4)cccc3[nH]2)C1 (centres unmarked) [(L)-2-(2-N-methyl-4-N-methylpiperazinyl)-1H-benzimidazole-4-[N-(1-hydroxymethyl-2-p-nitrophenylhydroxyethyl)]amide] | 9.2 (≈ 19.6 µM) |
| Cc1cc(C)c(-c2nc3c(C(=O)Nc4ccccc4O)cccc3[nH]2)[nH]1 [2-(3,5-dimethyl-2-pyrrolyl)-1H-benzimidazole-4-(N-o-hydroxyphenyl)amide] | 10.2 (≈ 29.4 µM) |
| O=C(NC(CO)C(O)c1ccc([N+](=O)[O-])cc1)c1cccc2[nH]c(-c3cccs3)nc12 (centres unmarked) [(L)-2-(2-thienyl)-1H-benzimidazole-4-[N-(1-hydroxymethyl-2-p-nitrophenylhydroxyethyl)]amide] | 15.90 (≈ 36.3 µM) |
| CN(C)c1ccnc(-c2nc3c(C(=O)Nc4ccc(N)cc4)cccc3[nH]2)c1 [2-(4-dimethylaminopyridyl)-1H-benzimidazole-4-(N-p-aminophenyl)amide] | 10.2 (≈ 27.4 µM) |
| Nc1ccc(NC(=O)c2cccc3[nH]c(-c4cncs4)nc23)cc1 [5-thiazolyl-1H-benzimidazole-4-(N-p-aminophenyl)amide] | 13.5 (≈ 40.3 µM) |
| COc1ccnc(-c2nc3c(C(=O)Nc4ccccc4O)cccc3[nH]2)c1 [2-(4-methoxypyridyl)-1H-benzimidazole-4-(N-o-hydroxyphenyl)amide] | 16.2 (≈ 45 µM) |
| O=C(Nc1ccccc1F)c1cccc2[nH]c(-c3ccc4ccccc4n3)nc12 [2-(2-quinolinyl)-1H-benzimidazole-4-(N-o-fluorophenyl)amide] | 15.3 (≈ 40 µM) |
| Cc1nc(-c2nc3c(C(=O)Nc4ccc(N)cc4)cccc3[nH]2)sc1N [2-(4-methyl-5-aminothiazolyl)-1H-benzimidazole-4-(N-p-aminophenyl)amide] | 9.8 (≈ 26.9 µM) |
| Nc1ccc(NC(=O)c2cccc3[nH]c(-c4c(N)ncnc4Cl)nc23)cc1 [2-(4-amino-6-chloro-5-pyrimidinyl)-1H-benzimidazole-4-(N-p-aminophenyl)amide] | 14.1 (≈ 37.1 µM) |
| O=C(NC(CO)C(O)c1ccccc1[N+](=O)[O-])c1cccc2[nH]c(N3CCNCC3)nc12 (centres unmarked) [(L)-2-N-piperazinyl-1H-benzimidazole-4-[N-(1-hydroxymethyl-2-o-nitrophenylhydroxyethyl)]amide] | 4.2 (≈ 9.54 µM) |
| O=C(Nc1ccccc1O)c1cccc2[nH]c(-c3cnc(-c4ccccc4)nc3)nc12 [2-(2-phenyl-5-pyrimidinyl)-1H-benzimidazole-4-(N-o-hydroxyphenyl)amide] | 13.2 (≈ 32.4 µM) |
| Nc1ccc(-c2nc3c(C(=O)Nc4ccccc4F)cccc3[nH]2)s1 [2-(5-amino-2-thienyl)-1H-benzimidazole-4-(N-o-fluorophenyl)amide] | 3.5 (≈ 9.93 µM) |
| 2-(2-N-methyl-4-N- methylpiperazinyl)-1H- benzimidazole-4-(N-o- fluorophenyl)amide | 8.9 |
| O=C(Nc1ccccc1O)c1cccc2[nH]c(-c3ncccn3)nc12 [2-(2-pyrimidinyl)-1H-benzimidazole-4-(N-o-hydroxyphenyl)amide] | 7.8 (≈ 23.5 µM) |
| Cn1cccc1-c1nc2c(C(=O)NC(CO)C(O)c3ccc([N+](=O)[O-])cc3)cccc2[nH]1 (centres unmarked) [(L)-2-(N-methyl-2-pyrrolyl)-1H-benzimidazole-4-[N-(1-hydroxymethyl-2-p-nitrophenylhydroxyethyl)]amide] | 11.1 (≈ 25.5 µM) |
| Nc1ccc(NC(=O)c2cccc3[nH]c(-c4c[nH]c5ccccc45)nc23)cc1 [2-(3-indolyl)-1H-benzimidazole-4-(N-p-aminophenyl)amide] | 10.8 (≈ 29.4 µM) |
